Experimental data from patent US10253002B2, “Compounds and methods of treating infections” (Neoculi Pty Ltd., priority 2013, dated 2019).
Values after ≈ are worked out from the molar mass of the structure shown. Values joined by “and” are separate entries in the source; they are usually repeats but may differ in a detail not shown here. Equal values may be shown once. Read-outs that look alike come from different tables or passages of the source.

Tests used:
[1] = system: DNA synthesis in S. aureus ATCC 29213; assay: Macromolecular synthesis assay: DNA synthesis ([3H] thymidine); format: cell-based, Staphylococcus aureus
Method: (§1) Cells were grown at 35° C. overnight on Trypticase Soy agar. A colony from the plate was used to inoculate 10 ml of Mueller Hinton broth II (MHBII), and the culture was grown to early exponential growth phase (OD600==0.2 to 0.3) while incubating in a shaker at 35° C. and 200 rpm.
When cells reached early exponential phase, 100 μL of culture was added to triplicate wells containing various concentrations of test compound or control antibiotics (5 μL) at 20× the final concentration in 100% DMSO. A 5% DMSO treated culture served as the “no drug” control for all experiments. Cells were added in MHBII at 105% to account for the volume of drug added to each reaction or in M9 minimal medium for protein synthesis reactions. Following 15 min incubation at room temperature, either [^3H] thymidine (DNA synthesis), [^3H] uridine (RNA synthesis) or [^3H] leucine (protein synthesis) was added at 0.5-1.0 μCi per reaction, depending on the experiment. Reactions were allowed to proceed at room temperature for 15-30 min and then stopped by adding 12 μL of cold 5% trichloroacetic acid (TCA) or 5% TCA/2% casamino acids (protein synthesis only). Reactions were incubated on ice for 30 min and the TCA precipitated material was collected on a 25 mm GF/A filter. After washing three times with 5 ml of cold 5% TCA, the filters were rinsed two times with 5 mL 100% ethanol, allowed to dry, and then counted using a Beckman LS3801 liquid scintillation counter.

[2] = system: non-MRSA S. aureus MK01 and KC01; assay: MBC (CLSI methodology), Example 8; format: cell-based, Staphylococcus aureus
VRE = assay: Kill kinetics assay, Example 7; format: cell-based, Enterococcus spp.
Method: MRSA/VRE were grown overnight on Columbia SBA at 37° C. A few colonies of bacteria were then suspended in CAMHB and adjusted to an optical density of 0.08 to 0.10. The bacterial suspension was diluted 1:10. […] The tubes were incubated at 37° C. In order to determine the number of viable bacteria present at various time points, a 100 μL aliquot was removed from each tube and diluted in normal saline. Then, 100 μL of each dilution was spread onto colony count agar, in duplicate, and incubated for 48 h at 37° C. After 24 h the numbers of colonies present on each plate were counted and therefore the number of viable bacteria present in the original suspension enumerated. Plates were re-checked after 48 hours.

[3] = system: S. aureus clinical isolates (MRSA and MSSA); assay: Minimum bactericidal concentration (MBC), Example 4; format: cell-based, Staphylococcus aureus; conditions: for MBC: Staphylococcus aureus
Source text: The MBC was defined as the lowest drug concentration at which 99.95% of the original inoculum was eliminated.

[4] = system: RNA synthesis in S. aureus ATCC 29213; assay: Macromolecular synthesis assay: RNA synthesis ([3H] uridine); format: cell-based, Staphylococcus aureus; conditions: 0.25 to 8 fold the MIC; rifampicin positive control
Method: as §1
When cells reached early exponential phase, 100 μL of culture was added to triplicate wells containing various concentrations of test compound or control antibiotics (5 μL) at 20× the final concentration in 100% DMSO. A 5% DMSO treated culture served as the “no drug” control for all experiments. Cells were added in MHBII at 105% to account for the volume of drug added to each reaction or in M9 minimal medium for protein synthesis reactions. Following 15 min incubation at room temperature, either [^3H] thymidine (DNA synthesis), [^3H] uridine (RNA synthesis) or [^3H] leucine (protein synthesis) was added at 0.5-1.0 μCi per reaction, depending on the experiment. Reactions were allowed to proceed at room temperature for 15-30 min and then stopped by adding 12 μL of cold 5% trichloroacetic acid (TCA) or 5% TCA/2% casamino acids (protein synthesis only). […] After washing three times with 5 ml of cold 5% TCA, the filters were rinsed two times with 5 mL 100% ethanol, allowed to dry, and then counted using a Beckman LS3801 liquid scintillation counter.

[5] = Release from Formulation B, Franz diffusion cells; format: physicochemical; conditions: absolute ethanol receptor, 32±1° C., up to 24 hours
Method: Franz diffusion cells were utilized to quantify the release rate of NCL 812 and NCL099 from its topical formulations. Five milliliters of absolute ethanol, which was chosen as the desired release medium, was loaded into the receptor chamber. Temperature of the receptor fluid was kept constant, at 32±1° C. using a water jacket. Acetyl cellulose membranes, with pore size of 0.45 μm (Pall Corporation) was selected and placed between donor and receptor chamber. Followed by that, a number of test samples (Formulation B) was loaded into the donor chamber. One milliliter of receptor fluid was collected at regular time intervals of 0.25, 0.50, 0.75, 1, 2, 3, 4, 5, 6, 7, 8 and 24 hours through the sampling port. One milliliter of fresh absolute ethanol was immediately returned to the receptor chamber. UV-HPLC was utilized to analyse the content of the receptor fluids attained.

[6] = system: D39 cell membrane ultra-structure; assay: Transmission electron microscopy morphometric analysis; format: cell-based, Streptococcus pneumoniae
Method: Morphological appearance and morphometric analysis of the cell membrane was determined using transmission electron microscopy (TEM). Bacterial suspensions and 10 mL cultures of […] were prepared as before. […] Critical time points for TEM work were determined by analysing trends in the growth curves produced from the kill kinetics studies. […] Samples were fixed using modified protocols defined by a previous study examining cell wall ultrastructure of S. pneumoniae ([…]. et al. 2005. Infect Immun 73:4653-4667). […] The samples were then embedded in fresh LR White resin and incubated at 50° C. for 48 h. Sections were cut to 1 μm using a glass knife, stained with Toluidene Blue and viewed under a light microcrope at 400× to identify the presence of stained pneumococci. At least four ultra-thin sections were then cut to 90 nm using a diamond knife and placed on matrix grids, one section per grid. […] Stained sections were then placed on grids and viewed between 25000× and 130000× on a Philips CM100 Transmission Electron Microscope. Images were obtained at 130000× magnification and analysed using analySIS [Olympus Soft Imaging Systems].

## N=C(N/N=C/c1ccc(Cl)cc1)N/N=C/c1ccc(Cl)cc1 [NCL812, 1,3-bis[(E)-(4-chlorophenyl)methyleneamino]guanidine]
[1]; 0.5 fold the MIC
  inhibition of DNA synthesis: 40%
[1]; […] the MIC
  inhibition of DNA synthesis: no inhibition
[1]; at the MIC
  inhibition of DNA synthesis: approximately 95%
[2]; S. aureus (KC01), 2 μg/ml
  NCL812 MBC test, growth on Sheep Blood Agar: +
[2]; S. aureus (KC01), 4 μg/ml
  NCL812 MBC test, growth on Sheep Blood Agar: + and 0
[2]; S. aureus (KC01), 8 μg/ml
  NCL812 MBC test, growth on Sheep Blood Agar: + and 0
[2]; S. aureus (KC01), 16 μg/ml
  NCL812 MBC test, growth on Sheep Blood Agar: 0
[2]; S. aureus (KC01), 32 μg/ml
  NCL812 MBC test, growth on Sheep Blood Agar: 0
[2]; S. aureus (KC01), 64 μg/ml
  NCL812 MBC test, growth on Sheep Blood Agar: 0
[2]; S. aureus (KC01), […]
  NCL812 MBC test, growth on Sheep Blood Agar: 0
[2]; S. aureus (MK01), 2 μg/ml
  NCL812 MBC test, growth on Sheep Blood Agar: 0
  Number of Bacteria Growing after 24 hours per ml of sample: 5 CFU/ml
[2]; S. aureus (MK01), 4 μg/ml
  NCL812 MBC test, growth on Sheep Blood Agar: 0
[2]; S. aureus (MK01), 8 μg/ml
  NCL812 MBC test, growth on Sheep Blood Agar: 0
[2]; S. aureus (MK01), 16 μg/ml
  NCL812 MBC test, growth on Sheep Blood Agar: 0 (N) and 0
[2]; S. aureus (MK01), 32 μg/ml
  NCL812 MBC test, growth on Sheep Blood Agar: 0 (N) and 0
[2]; S. aureus (MK01), 64 μg/ml
  NCL812 MBC test, growth on Sheep Blood Agar: 0 (N) and 0
[2]; S. aureus MK01 and KC01, no growth, or growth only at 2 μg/ml
  MBC test outcome: bactericidal
VRE; at 4 h
  reduction in the viable count compared to the control: ~2 log10
VRE; at 8 h
  reduction in the viable count compared to the control: ~2.5 log10
VRE; at 24 h
  growth of bacteria versus control: no longer as significantly reduced in comparison to the control
[3]; 30 isolates
  S. aureus isolates with MBC equivalent to the MIC: 93.33%
[3]; CA-MRSA (n = 10)
  MBCrange: 2 to 4 µg/mL
[3]; HA-MRSA (n = 10)
  MBCrange: 4 to 8 µg/mL
[3]; Methicillin-susceptible staphylococci (n = 10)
  MBCrange: 2 to 8 µg/mL
[3]; CA-MRSA (n = 10), read-out: MBC50
  MBC: 4 µg/mL (≈ 12 µM)
[3]; CA-MRSA (n = 10), read-out: MBC90
  MBC: 4 µg/mL (≈ 12 µM)
[3]; HA-MRSA (n = 10), read-out: MBC50
  MBC: 8 µg/mL (≈ 23.9 µM)
[3]; HA-MRSA (n = 10), read-out: MBC90
  MBC: 8 µg/mL (≈ 23.9 µM)
[3]; Methicillin-susceptible staphylococci (n = 10), read-out: MBC50
  MBC: 4 µg/mL (≈ 12 µM)
[3]; Methicillin-susceptible staphylococci (n = 10), read-out: MBC90
  MBC: 8 µg/mL (≈ 23.9 µM)
[3]; Total bacterial isolates (n = 30), read-out: MBC50
  MBC: 4 µg/mL (≈ 12 µM)
[3]; Total bacterial isolates (n = 30), read-out: MBC90
  MBC: 8 µg/mL (≈ 23.9 µM)
[3]; Total bacterial isolates (n = 30)
  MBCrange: 2 to 8 µg/mL
[4]
  inhibition of RNA synthesis: very similar to the DNA synthesis study
[5]
  release profile from Formulation B: acceptable release profile
[6]; D39 exposed to 16 μg/mL NCL812 for 6 h, untreated 4.35±0.24
  cell membrane thickness: 6.43±0.29 nm
[6]; D39 treated with 16 μg/mL NCL812 for 6 h, untreated 3.91±0.14
  width of periplasmic space: 4.54±0.096 nm
[6]; D39 treated with 16 μg/ml NCL812 for 6 h, n = 11, growth control 3.91 ± 0.14 nm
  Periplasmic space, Mean ± SEM: 4.54 ± 0.096 nm,
[6]; D39 treated with 16 μg/ml NCL812 for 6 h, n = 13, growth control 4.35 ± 0.24 nm
  Cell membrane, Mean ± SEM: 6.43 ± 0.29 nm,
